Source: patent publication US20130217640A1 (priority 2010, published 2013)
Converted amounts (≈) assume the structure as drawn. One block for each compound: values may come before it.

Tests used:
[1] = Pharmacokinetics after intravenous administration: pro-drug and released acetaminophen in plasma or blood; format: in vivo, male Sprague-Dawley rats; conditions: for half-life: male, Sprague-Dawley, plasma, 66.3 umol/kg, read-out: half life (t1/2) of the pro-drug; for half-life / AUC of the pro-drug (in words) / half-life of the pro-drug (in words): target dose 66.3 μmol/Kg, Table 4
[2] = Solution stability study at three pD's in phosphate buffered D2O, monitored by 1H NMR; format: physicochemical; conditions: 23° C.; for stability in solution (in words): pD 5.0, 6.0 and 7.0, phosphate buffered D2O, protected from light; for change in 1H NMR spectra: after 167 days, pD 5.0, 6.0, 7.0 in D2O
Experimental: 10 mL (11.07 g) D2O was placed in 3 separate vials with a stir bar and 0.002 moles (0.272 g) monobasic potassium phosphate (KH2PO4) was added to each. With the pD metered, NaOD/D2O was added drop-wise to each to adjust the pD's to 5.0, 6.0, and 7.0. Each of these solutions was gently boiled before use. Thus each vial contained […] phosphate buffered solution. […] The sample was sterilized by heating for 10 seconds, and after it had cooled down to ambient temperature (about 1 minute), 0.3 mL of one of the 0.2 mM 3 buffered solutions was added. The 0.6 mL sample was then placed in a sterilized NMR tube and the tube sealed and labeled. Each of the samples was stored at 23° C. protected from the light and monitored by ^1H NMR (64 scans for each sample) periodically.

[3] = Water solubility of the analogs (saturated D2O solution, 1H NMR against DSS standard); format: physicochemical; conditions: for water solubility (in words): D2O, Table 1
Experimental: The method use involved stirring the sample in D2O for a period of 3 days, followed by filtration using a 0.2μ syringe filter. A measured volume of this saturated solution was diluted with a standard solution of DSS in D2O, and a ^1H NMR was taken. Integration of the DSS peaks compared to that of the analog would allow for the determination of its concentration, and thus the concentration of the saturated solution.

stability in solution (in words) [2]: least stable to all of the pD's
SMILES: CC(=O)Nc1ccc(O[C@@H]2C=C[C@H](O)[C@@H](CO)O2)cc1 [Compound 1, N-(4-((2R,5S,6R)-5-hydroxy-6-(hydroxymethyl)-5,6-dihydro-2H-pyran-2-yloxy)phenyl)acetamide, reference compound]

stability in solution (in words) [2]: showing a lot of instability
SMILES: CC(=O)Nc1ccc(O[C@@H]2CC[C@H](O)[C@@H](CO)O2)cc1 [Compound 12, 1-(4′-acetamidophenoxy) 2,3-dideoxy glucose]

AUC of the pro-drug (in words) ([1]; rat, intravenous): high AUC values
half-life of the pro-drug (in words) ([1]; rat, intravenous): relatively high half-lives
SMILES: CC(=O)Nc1ccc(O[C@H]2O[C@H](C)[C@@H](O)[C@H](O)[C@@H]2O)cc1 [Compound 23, 1-(4′-acetamidophenoxy)-6-deoxymannose]

change in 1H NMR spectra [2]: no change
water solubility ([3]; stirred in D2O for 3 days, filtered 0.2μ, 1H NMR integration vs DSS): 13 mg/mL (≈ 86 mM)
SMILES: CC(=O)Nc1ccc(O)cc1 [acetaminophen, reference compound]

half-life ([1]; rat, intravenous): < 1 h
half-life of the pro-drug (in words) ([1]; rat, intravenous): relatively high half-lives
change in 1H NMR spectra [2]: no change
SMILES: CC(=O)Nc1ccc(O[C@H]2O[C@H](CO)[C@@H](O)[C@H](O)[C@@H]2O)cc1 [Compound 8, N-(4-((2R,3S,4S,5S,6R)-3,4,5-trihydroxy-6-(hydroxymethyl)tetrahydro-2H-pyran-2-yloxy)phenyl)acetamide]

half-life ([1]; rat, intravenous): < 1 h
AUC of the pro-drug (in words) ([1]; rat, intravenous): low values for AUC
SMILES: CC(=O)Nc1ccc(O[C@H]2O[C@H](COC(C)=O)[C@@H](O)[C@H](O)[C@@H]2O)cc1 [Compound 15]
AUC of acetaminophen released by the pro-drug (in words) ([1]; rat, intravenous, Table 5): largest AUC value of all of the pro-drugs
overall characteristics (water solubility, release of acetaminophen, AUC) ([1]; summary statement): best combination of water solubility, quick release of the acetaminophen, and AUC

The remaining lines, values behind:

SMILES: CCCC(=O)OC[C@H]1O[C@H](Oc2ccc(NC(C)=O)cc2)[C@@H](O)[C@@H](O)[C@@H]1O [Compound 18, 1-(4′-acetamidophenoxy)-6-O-butyrylmannose]
half-life ([1]; rat, intravenous): < 1 h
AUC of the pro-drug (in words) ([1]; rat, intravenous): low values for AUC

SMILES: CC(=O)Nc1ccc(O[C@H]2O[C@H](COC(=O)CCC(=O)O)[C@@H](O)[C@H](O)[C@@H]2O)cc1 [Compound 20]
AUC of the pro-drug (in words) ([1]; rat, intravenous): high AUC values
half-life of the pro-drug (in words) ([1]; rat, intravenous): relatively high half-lives

SMILES: CC(=O)Nc1ccc(O[C@H]2O[C@H](COC(=O)C(C)C)[C@@H](O)[C@H](O)[C@@H]2O)cc1 [Compound 19, 1-(4′-acetamidophenoxy)-6-O-isobutyrylmannose]
half-life ([1]; rat, intravenous): < 1 h
AUC of the pro-drug (in words) ([1]; rat, intravenous): low values for AUC

SMILES: CC(=O)Nc1ccc(O[C@H]2O[C@H](CO)[C@@H](OC3O[C@H](CO)[C@@H](O)[C@H](O)[C@H]3O)[C@H](O)[C@@H]2O)cc1 (stereo partly drawn) [Compound 5, 1-(4-acetaminophenoxy) 2-epi maltose]
change in 1H NMR spectra [2]: no change
water solubility (in words) [3]: highest solubility of all of the analogs

SMILES: CCCC(=O)OC[C@H]1O[C@H](Oc2ccc(NC(C)=O)cc2)C=C[C@@H]1O [Compound 16, 1-(4′-acetamidophenoxy)-6-O-butyryl-2,3-dideoxy 2,3-didehydro glucose]
water solubility (in words) [3]: excellent solubility
